Assay results reported in ChEMBL document CHEMBL1201862, “PubChem BioAssay data set” (2004).
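Compound exposure: 48 hours, 5 concentrations, 96-well plates. GI50: concentration for 50% inhibition of growth.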 Activity calls are given as the source filed them. No stated cut-off is given here; in the data, active = GI50 up to about 1.1 µM and inactive = higher.

Tests used:
Assay in all cases: NCI tumour cell line growth inhibition, 48 h
[1] = tested on: 786-0
[2] = tested on: A498
[3] = tested on: A549
[4] = tested on: ACHN
[5] = tested on: BT-549
[6] = tested on: CAKI-1
[7] = tested on: CCRF-CEM
[8] = tested on: COLO 205
[9] = tested on: DU-145
[10] = tested on: EKVX
[11] = tested on: HCC 2998
[12] = tested on: HCT-116
[13] = tested on: HCT-15
[14] = tested on: HL-60
[15] = tested on: HOP-62
[16] = tested on: HOP-92
[17] = tested on: HT-29
[18] = tested on: Hs-578T
[19] = tested on: IGROV-1
[20] = tested on: K562
[21] = tested on: KM12
[22] = tested on: LOX IMVI
[23] = tested on: M14
[24] = tested on: MCF7
[25] = tested on: MDA-MB-231
[26] = tested on: MDA-MB-435
[27] = tested on: MDA-N
[28] = tested on: MOLT-4
[29] = tested on: Malme-3M
[30] = tested on: NCI-H226
[31] = tested on: NCI-H23
[32] = tested on: NCI-H460
[33] = tested on: NCI-H522
[34] = tested on: NCI/ADR-RES
[35] = tested on: OVCAR-3
[36] = tested on: OVCAR-4
[37] = tested on: OVCAR-5
[38] = tested on: OVCAR-8
[39] = tested on: PC-3
[40] = tested on: RPMI-8226
[41] = tested on: RXF 393
[42] = tested on: SF-268
[43] = tested on: SF-295
[44] = tested on: SF-539
[45] = tested on: SK-MEL-28
[46] = tested on: SK-MEL-5
[47] = tested on: SK-OV-3
[48] = tested on: SN12C
[49] = tested on: SNB-19
[50] = tested on: SNB-75
[51] = tested on: SR
[52] = tested on: SW-620
[53] = tested on: T47D
[54] = tested on: TK-10
[55] = tested on: U-251
[56] = tested on: UACC-257
[57] = tested on: UACC-62
[58] = tested on: UO-31
[59] = tested on: SK-MEL-2

Compound: COc1cc2c(OC)c(c1)CCCC1=CC(=O)C=C(CCC2)C1=O
- GI50 [1]: 29 µM (inactive)
- GI50 [2]: > 100 µM (inactive)
- GI50 [3]: 58.7 µM (inactive)
- GI50 [4]: 47.5 µM (inactive)
- GI50 [5]: 33.3 µM (inactive)
- GI50 [6]: > 100 µM (inactive)
- GI50 [7]: 3.09 µM (inactive)
- GI50 [8]: 21.9 µM (inactive)
- GI50 [9]: > 68.4 µM (inactive)
- GI50 [10]: 41.1 µM (inactive)
- GI50 [11]: 43.5 µM (inactive)
- GI50 [12]: 17.1 µM (inactive)
- GI50 [13]: 33.6 µM
- GI50 [14]: 6.1 µM (inactive)
- GI50 [15]: 78.7 µM (inactive)
- GI50 [16]: 5.6 µM (inactive)
- GI50 [17]: 44.9 µM (inactive)
- GI50 [18]: 30.9 µM (inactive)
- GI50 [19]: 40.8 µM (inactive)
- GI50 [20]: 14.6 µM (inactive)
- GI50 [21]: 21.9 µM (inactive)
- GI50 [22]: 16.6 µM (inactive)
- GI50 [23]: 26.7 µM (inactive)
- GI50 [24]: 39 µM (inactive)
- GI50 [25]: 25.5 µM (inactive)
- GI50 [26]: 23.8 µM (inactive)
- GI50 [27]: 15.2 µM (inactive)
- GI50 [28]: 2.72 µM (inactive)
- GI50 [29]: 10.4 µM (inactive)
- GI50 [30]: > 100 µM (inactive)
- GI50 [31]: 50.2 µM (inactive)
- GI50 [32]: 41.9 µM (inactive)
- GI50 [33]: 21 µM (inactive)
- GI50 [34]: 32 µM (inactive)
- GI50 [35]: 22.6 µM (inactive)
- GI50 [36]: 17.2 µM (inactive)
- GI50 [37]: > 100 µM (inactive)
- GI50 [38]: 20.4 µM (inactive)
- GI50 [39]: 28.6 µM (inactive)
- GI50 [40]: 7.6 µM (inactive)
- GI50 [41]: 26.7 µM (inactive)
- GI50 [42]: 37.8 µM (inactive)
- GI50 [43]: 50.2 µM (inactive)
- GI50 [44]: 35.6 µM (inactive)
- GI50 [45]: 54.2 µM (inactive)
- GI50 [46]: 30.3 µM (inactive)
- GI50 [47]: 56.9 µM (inactive)
- GI50 [48]: 20.8 µM (inactive)
- GI50 [49]: 29.4 µM (inactive)
- GI50 [50]: > 60.3 µM (inactive)
- GI50 [51]: 3.54 µM (inactive)
- GI50 [52]: 32.1 µM (inactive)
- GI50 [53]: 23.2 µM (inactive)
- GI50 [54]: > 100 µM (inactive)
- GI50 [55]: 40.1 µM (inactive)
- GI50 [56]: 35 µM (inactive)
- GI50 [57]: 31.8 µM (inactive)
- GI50 [58]: 43.9 µM (inactive)

Compound: Nc1cccnc1NCC1(CO)CCCC1
- GI50 [1]: > 100 µM (inactive)
- GI50 [2]: > 100 µM (inactive)
- GI50 [3]: > 100 µM (inactive)
- GI50 [4]: > 100 µM (inactive)
- GI50 [5]: > 100 µM (inactive)
- GI50 [6]: > 100 µM (inactive)
- GI50 [7]: > 100 µM (inactive)
- GI50 [8]: > 100 µM (inactive)
- GI50 [9]: > 100 µM (inactive)
- GI50 [10]: > 100 µM (inactive)
- GI50 [11]: > 100 µM (inactive)
- GI50 [12]: > 100 µM (inactive)
- GI50 [13]: > 100 µM
- GI50 [14]: > 100 µM (inactive)
- GI50 [15]: > 100 µM (inactive)
- GI50 [17]: > 100 µM (inactive)
- GI50 [18]: > 100 µM (inactive)
- GI50 [19]: > 100 µM (inactive)
- GI50 [20]: > 100 µM (inactive)
- GI50 [21]: > 100 µM (inactive)
- GI50 [22]: > 100 µM (inactive)
- GI50 [24]: > 100 µM (inactive)
- GI50 [25]: > 100 µM (inactive)
- GI50 [26]: > 100 µM (inactive)
- GI50 [27]: > 100 µM (inactive)
- GI50 [28]: > 100 µM (inactive)
- GI50 [29]: > 100 µM (inactive)
- GI50 [30]: > 100 µM (inactive)
- GI50 [31]: > 100 µM (inactive)
- GI50 [32]: > 100 µM (inactive)
- GI50 [33]: > 100 µM (inactive)
- GI50 [34]: > 100 µM (inactive)
- GI50 [35]: > 100 µM (inactive)
- GI50 [36]: > 100 µM (inactive)
- GI50 [37]: > 100 µM (inactive)
- GI50 [38]: > 100 µM (inactive)
- GI50 [39]: > 100 µM (inactive)
- GI50 [40]: > 100 µM (inactive)
- GI50 [41]: > 100 µM (inactive)
- GI50 [42]: > 100 µM (inactive)
- GI50 [43]: > 100 µM (inactive)
- GI50 [44]: > 100 µM (inactive)
- GI50 [45]: > 100 µM (inactive)
- GI50 [59]: > 100 µM (inactive)
- GI50 [46]: > 100 µM (inactive)
- GI50 [47]: > 100 µM (inactive)
- GI50 [48]: > 100 µM (inactive)
- GI50 [50]: > 100 µM (inactive)
- GI50 [51]: > 100 µM (inactive)
- GI50 [52]: > 100 µM (inactive)
- GI50 [53]: > 100 µM (inactive)
- GI50 [54]: > 100 µM (inactive)
- GI50 [55]: > 100 µM (inactive)
- GI50 [56]: > 100 µM (inactive)
- GI50 [57]: > 100 µM (inactive)
- GI50 [58]: > 100 µM (inactive)
